Results reported in patent publication US20230131966A1, “FUNGICIDAL AMIDES” (FMC Corporation, priority 2020, published 2023).

How the values were obtained:
Assay type in all cases: in vivo
Plasmopara viticola = experiment: Test D: grape downy mildew control on grape seedlings; conditions: 100 = 100% disease control, 0 = no control
[1] = tested on: Puccinia recondita f. sp. tritici; experiment: Test B: wheat leaf rust control on wheat seedlings; conditions: wheat seedlings, 100 = 100% disease control, 0 = no control
Phytophthora infestans = experiment: whole plant or invertebrate; conditions: tomato seedlings, 100 = 100% disease control, 0 = no control
Phakopsora pachyrhizi = experiment: Test A: Asian soybean rust control on soybean seedlings; conditions: soybean seedlings, 100 = 100% disease control, 0 = no control
Zymoseptoria tritici = experiment: Test C: wheat leaf blotch control on wheat seedlings; conditions: wheat seedlings, 100 = 100% disease control, 0 = no control
Botrytis cinerea = experiment: Test E: tomato Botrytis control on tomato seedlings; conditions: 100 = 100% disease control, 0 = no control
[2] = tested on: Erysiphe graminis f. sp. tritici; experiment: Test G: wheat powdery mildew control on wheat seedlings; conditions: 100 = 100% disease control, 0 = no control

| SMILES | Test D disease control rating (Plasmopara viticola; 250 ppm) | Test B disease control rating ([1]; 250 ppm) | Test F disease control rating (Phytophthora infestans; 250 ppm) | Test A disease control rating (Phakopsora pachyrhizi; 250 ppm) | Test C disease control rating (Zymoseptoria tritici; 250 ppm) | Test E disease control rating (Botrytis cinerea; 250 ppm) | Test G disease control rating ([2]; 250 ppm) | further results |
| --- | --- | --- | --- | --- | --- | --- | --- | --- |
| COc1ccnc(C(=O)NC(C)C(=O)OC(C)c2ccc(F)cc2Cc2ccccc2)c1O (mixture of isomers) [Compound 12] | 83% | 97% | 0% | 99% | 0% | 0% | 0% | – |
| COc1ccnc(C(=O)NC(C)C(=O)OC(C)c2ccccc2Cc2ccc(F)cc2)c1O (mixture of isomers) [Compound 13] | 50% | 100% | 0% | 100% | 73% | 0% | 0% | – |
| COc1ccnc(C(=O)NC(C)C(=O)OC(C)c2ccc(F)cc2)c1OC(C)=O (mixture of isomers) [Compound 15] | 39% | 19% | 0% | 75% | 69% | 0% | 0% | – |
| COc1ccnc(C(=O)NC(C)C(=O)OC(C)c2ccccc2[N+](=O)[O-])c1O (mixture of isomers) [Compound 16] | 59% | 0% | 0% | 13% | 76% | 0% | 0% | – |
| COc1ccnc(C(=O)NC(C)C(=O)OC(C)c2ccccc2C(F)(F)F)c1O (mixture of isomers) [Compound 17] | – | – | – | – | – | – | – | Test D disease control rating (Plasmopara viticola; 150 ppm): 23%; Test B disease control rating ([1]; 150 ppm): 41%; Test F disease control rating (Phytophthora infestans; 150 ppm): 0%; Test A disease control rating (Phakopsora pachyrhizi; 150 ppm): 66%; Test C disease control rating (Zymoseptoria tritici; 150 ppm): 92%; Test E disease control rating (Botrytis cinerea; 150 ppm): 0%; Test G disease control rating ([2]; 150 ppm): 0% |
| COc1ccnc(C(=O)NC(C)C(=O)OC(C)c2ccccc2C(F)(F)F)c1OC(C)=O (mixture of isomers) [Compound 18] | 35% | 68% | 0% | 62% | 93% | 0% | 0% | – |
| COc1ccnc(C(=O)NC(C)C(=O)OC(C)C2CCC(C(F)(F)F)CC2)c1O (mixture of isomers) [Compound 179] | 82% | 100% | 0% | 100% | 99% | 0% | – | – |
| COc1ccnc(C(=O)N[C@@H](C)C(=O)OC(C)c2ccc(C3CCCCC3)cc2)c1OC(C)=O (single isomer, unassigned) [Compound 86] | 24% | – | 0% | 73% | 65% | 0% | 0% | – |
| COc1ccnc(C(=O)N[C@@H](C)C(=O)OC(C)C2CCCCC2)c1OC(C)=O (single isomer, unassigned) [Compound 88] | 43% | – | 0% | 99% | 58% | 0% | 0% | – |
| COc1ccnc(C(=O)N[C@@H](C)C(=O)O[C@@H](C)C2CCCCC2)c1OC(C)=O [Compound 87, N-[[3-(acetyloxy)-4-methoxy-2-pyridinyl]carbonyl]-L-alanine (1S)-1-cyclohexylethyl ester] | – | – | – | – | – | – | – | pest or weed control at 250 ppm (Plasmopara viticola; Plasmopara viticola, 250 ppm, read-out: Test D disease control rating): 21%; pest or weed control at 250 ppm (Phytophthora infestans; Phytophthora infestans, in Solanum lycopersicum, read-out: Test F disease control rating, 250 ppm): 47%; pest or weed control at 250 ppm (Phakopsora pachyrhizi; Phakopsora pachyrhizi, 250 ppm, read-out: Test A disease control rating): 100%; pest or weed control at 250 ppm (Zymoseptoria tritici; Zymoseptoria tritici, 250 ppm, read-out: Test C disease control rating): 95%; pest or weed control at 250 ppm (Botrytis cinerea; Botrytis cinerea, 250 ppm, read-out: Test E disease control rating): 0%; pest or weed control at 250 ppm ([2]; Blumeria graminis, 250 ppm, read-out: Test G disease control rating): 0% |
